Results on 13 compounds are retold here after patent publication US20230158025A1 (UNIVERSITY OF UTAH RESEARCH FOUNDATION, priority 2020, published 2023).

One may read the Papp as the rate of passage across a membrane or cell layer, normalised by area and donor concentration.

Data set [1] is described as follows: rat microsomal stability (RLM).
The next data set deals with recombinant human GALK1 (Homo sapiens, UniProt P51570). The data set is described as follows: hGALK1 biochemical activity assay (Kinase-Glo Plus, ATP depletion). An outline of the steps:
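Recombinant human or mouse GALK1 (5 nM, with 100 μM galactose, in the added enzyme solution) was run with ATP (35 μM in the substrate solution) in HEPES pH 8.0 buffer. Compounds were tested at 11 1/3-step concentrations from 57.4 μM to 0.97 nM. After 1 h at room temperature, remaining ATP was read by Kinase-Glo Plus luminescence.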
A general note: Kinase-Glo measures the ATP left after a reaction by luminescence.

A short description of data set [2]: aqueous kinetic solubility.
For another data set, the target named is recombinant mouse GALK1 (Mus musculus, UniProt Q9R0N0). The data set is described as follows: mGALK1 biochemical activity assay (Kinase-Glo Plus, ATP depletion). The essentials: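 Recombinant GALK1 (5 nM) with 100 μM galactose; GALK1 turnover read as ATP depletion by Kinase-Glo Plus luminescence. Reaction ran 1 h at room temperature before detection reagent was added.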

The next data set is described as follows: PAMPA permeability. Particulars: for Papp: Perm. (1 × 10^−6 cm/sec). (In PAMPA a lipid-coated filter parts donor from acceptor wells.)
[3] abbreviates: Tables 2-15, 35 μM ATP, 100 μM galactose, 1 h, bracketed figure after some values (e.g. −1.2) is undefined and not reported, read-out: hGALK IC50.
Setting [4] is: recombinant human GALK1, Kinase-Glo Plus ATP depletion, read-out: hGALK.
The mark [5] stands for this setting: Tables 2-15, 35 μM ATP, 100 μM galactose, 1 h, bracketed figure after some values is undefined and not reported, read-out: mGALK IC50.
The mark [6] stands for this setting: recombinant mouse GALK1, Kinase-Glo Plus ATP depletion, read-out: mGALK.

Like-named read-outs stand apart in the source and are kept apart here.

Chain of recombinant mouse GALK1 (Q9R0N0 whole entry): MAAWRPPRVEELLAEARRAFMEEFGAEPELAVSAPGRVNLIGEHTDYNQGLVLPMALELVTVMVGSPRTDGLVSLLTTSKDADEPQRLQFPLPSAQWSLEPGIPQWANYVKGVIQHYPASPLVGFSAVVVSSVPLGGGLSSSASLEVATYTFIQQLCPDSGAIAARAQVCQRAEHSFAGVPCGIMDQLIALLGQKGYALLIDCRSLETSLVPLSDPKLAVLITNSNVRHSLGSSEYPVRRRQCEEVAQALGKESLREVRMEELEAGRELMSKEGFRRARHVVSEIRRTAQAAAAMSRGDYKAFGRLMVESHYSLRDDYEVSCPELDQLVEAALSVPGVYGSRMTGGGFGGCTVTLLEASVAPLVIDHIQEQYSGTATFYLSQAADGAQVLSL
Chain of recombinant human GALK1 (P51570 whole entry): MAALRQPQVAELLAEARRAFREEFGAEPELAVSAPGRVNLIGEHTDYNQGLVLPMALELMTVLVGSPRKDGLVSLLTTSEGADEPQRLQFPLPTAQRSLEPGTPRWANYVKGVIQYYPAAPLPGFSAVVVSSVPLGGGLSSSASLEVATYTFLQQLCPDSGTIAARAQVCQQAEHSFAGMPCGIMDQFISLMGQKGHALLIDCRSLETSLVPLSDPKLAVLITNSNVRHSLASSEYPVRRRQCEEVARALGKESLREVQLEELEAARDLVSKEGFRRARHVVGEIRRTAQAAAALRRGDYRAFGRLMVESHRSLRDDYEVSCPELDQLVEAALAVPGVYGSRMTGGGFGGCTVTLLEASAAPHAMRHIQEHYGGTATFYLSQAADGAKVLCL

As for `CC1=C(C(=O)Nc2cc(C(=O)O)ccn2)C(c2ccc(C)cc2Cl)N=C(Nc2nc3cccc(N)c3o2)N1` (racemic) [Compound 79, 2-(2-((7-aminobenzo[d]oxazol-2-yl)amino)-4-(2-chloro-4-methylphenyl)-6-methyl-1,4-dihydropyrimidine-5-carboxamido)isonicotinic acid], the “Metab. Stabil. (m)” value in data set [1] (microsomal half-life) is recorded as above 30 m. Also, the IC50 at recombinant human GALK1 (setting [3]) worked out at 0.12 µM; at recombinant human GALK1 (setting [4]) it was 0.12 µM; at recombinant mouse GALK1 (setting [5]), 1.72 µM; at recombinant mouse GALK1 (setting [6]), 1.72 µM. Also, in data set [2], the “Sol.” value is above 78 µg/mL. Also, the Papp in the data set “PAMPA permeability” (PAMPA) was below 1 ×10⁻⁶ cm/s.

Consider `COc1ccc(C2N=C(Nc3nc4cccc(N)c4o3)NC(C)=C2C(=O)Nc2cc(C(=O)O)ccn2)c(Cl)c1` (racemic) [Compound 80, 2-(2-((7-aminobenzo[d]oxazol-2-yl)amino)-4-(2-chloro-4-methoxyphenyl)-6-methyl-1,4-dihydropyrimidine-5-carboxamido)isonicotinic acid], for which the “Metab. Stabil. (m)” value in data set [1] (microsomal half-life) is given as above 30 m. The IC50 came to 0.14 µM on recombinant human GALK1 (setting [3]), 0.14 µM on recombinant human GALK1 (setting [4]), 1.93 µM at recombinant mouse GALK1 (setting [5]) and 1.93 µM at recombinant mouse GALK1 (setting [6]). Moreover, the “Sol.” value in data set [2] is above 81 µg/mL. Also, in the data set “PAMPA permeability” (PAMPA), the Papp is below 1 ×10⁻⁶ cm/s.

On to `CC1=C(C(=O)Nc2cc(C(=O)O)ccn2)C(c2ccccc2Cl)N=C(Nc2nc3c(N)cccc3o2)N1` (stereo not shown) [Compound 2, 2-(2-((4-aminobenzo[d]oxazol-2-yl)amino)-4-(2-chlorophenyl)-6-methyl-1,4-dihydropyrimidine-5-carboxamido)isonicotinic acid], for which, in data set [1] (microsomal half-life), the “Metab. Stabil. (m)” value is above 30 m. The IC50 at recombinant human GALK1 (setting [4]) was 21.7 µM; on recombinant mouse GALK1 (setting [5]), 30.6 µM; on recombinant mouse GALK1 (setting [6]) it was 30.6 µM. Also, the “Sol.” value in data set [2] was above 76 µg/mL. Further, the “Perm. (1 × 10^−6 cm/sec)” value in “PAMPA permeability” is <1 1 × 10^−6 cm/sec.

Turning to `COc1ccc2nc(NC3=NC(c4ccccc4Cl)C(C(=O)Nc4cc(C(=O)O)ccn4)=C(C)N3)oc2c1` (stereo not shown) [Compound 7, 2-(4-(2-chlorophenyl)-6-methyl-2-((6-methoxybenzo[d]oxazol-2-yl)amino)-1,4-dihydropyrimidine-5-carboxamido)isonicotinic acid], the “Metab. Stabil. (m)” value in data set [1] (microsomal half-life) is given as above 30 m. For the same compound, the IC50 at recombinant human GALK1 (setting [4]), at recombinant mouse GALK1 (setting [5]) and at recombinant mouse GALK1 (setting [6]) was 21.7 µM throughout. Also, the “Sol.” value in data set [2] was above 79 µg/mL. Moreover, in the data set “PAMPA permeability”, the “Perm. (1 × 10^−6 cm/sec)” value is reported as <1 1 × 10^−6 cm/sec.

Take `CC1=C(C(=O)Nc2cc(C(=O)O)ccn2)[C@H](c2ccccc2Cl)N=C(Nc2nc3ccc(F)cc3o2)N1` [Compound 19, (R)-2-(4-(2-chlorophenyl)-2-((6-fluorobenzo[d]oxazol-2-yl)amino)-6-methyl-1,4-dihydropyrimidine-5-carboxamido)isonicotinic acid]: the “Metab. Stabil. (m)” value in data set [1] (microsomal half-life) is above 30 m. Also, the IC50 on recombinant human GALK1 (setting [3]) came to 0.24 µM; at recombinant human GALK1 (setting [4]) it was 0.24 µM; on recombinant mouse GALK1 (setting [5]), 1.72 µM; at recombinant mouse GALK1 (setting [6]), 1.72 µM. Besides, in data set [2], the “Sol.” value came out at 55.6 µg/mL. The “Perm. (1 × 10^−6 cm/sec)” value in the data set “PAMPA permeability” was <1 1 × 10^−6 cm/sec.

In the case of `CC1=C(C(=O)Nc2cc(C(=O)O)ccn2)[C@@H](c2ccccc2Cl)N=C(Nc2nc3ccc(F)cc3o2)N1` [Compound 20, (S)-2-(4-(2-chlorophenyl)-2-((6-fluorobenzo[d]oxazol-2-yl)amino)-6-methyl-1,4-dihydropyrimidine-5-carboxamido)isonicotinic acid], the “Metab. Stabil. (m)” value in data set [1] (microsomal half-life) is given as above 30 m. Besides, the IC50 stood at 3.06 µM at recombinant human GALK1 (setting [3]), 3.06 µM on recombinant human GALK1 (setting [4]), 13.7 µM on recombinant mouse GALK1 (setting [5]) and 13.7 µM on recombinant mouse GALK1 (setting [6]). The “Sol.” value in data set [2] is 17.3 µg/mL. For the same compound, in the data set “PAMPA permeability”, the “Perm. (1 × 10^−6 cm/sec)” value was <1 1 × 10^−6 cm/sec.

For `CC1=C(C(=O)Nc2cc(C(=O)O)ccn2)C(c2ccccc2Cl)N=C(Nc2nc3cccc([N+](=O)[O-])c3o2)N1` (stereo not shown) [Compound 23, 2-(4-(2-chlorophenyl)-6-methyl-2-((7-nitrobenzo[d]oxazol-2-yl)amino)-1,4-dihydropyrimidine-5-carboxamido)isonicotinic acid], in data set [1] (microsomal half-life), the “Metab. Stabil. (m)” value was above 30 m. The IC50 was 19.3 µM on recombinant human GALK1 (setting [3]), 19.3 µM on recombinant human GALK1 (setting [4]), 38.5 µM on recombinant mouse GALK1 (setting [5]) and 38.5 µM on recombinant mouse GALK1 (setting [6]). The “Sol.” value in data set [2] was 7.3 µg/mL. Besides, in “PAMPA permeability”, the “Perm. (1 × 10^−6 cm/sec)” value is recorded as 31.0 1 × 10^−6 cm/sec.

In the case of `CC1=C(C(=O)Nc2cc(C(=O)O)ccn2)[C@@H](c2ccccc2Cl)N=C(Nc2nc3cccc(N)c3o2)N1` [Compound 25, (S)-2-(2-((7-aminobenzo[d]oxazol-2-yl)amino)-4-(2-chlorophenyl)-6-methyl-1,4-dihydropyrimidine-5-carboxamido)isonicotinic acid], the “Metab. Stabil. (m)” value in data set [1] (microsomal half-life) was above 30 m. For the same compound, the IC50 at recombinant human GALK1 (setting [3]) came out at 6.11 µM; at recombinant human GALK1 (setting [4]) it was 6.11 µM; at recombinant mouse GALK1 (setting [5]), 34.3 µM; at recombinant mouse GALK1 (setting [6]), 34.3 µM. Besides, the “Sol.” value in data set [2] was above 76 µg/mL. Also, the “Perm. (1 × 10^−6 cm/sec)” value in “PAMPA permeability” is <1.3 1 × 10^−6 cm/sec.

With `CCOC(=O)c1cccc(NC(=O)C2=C(C)NC(Nc3nc4ccccc4o3)=NC2c2ccccc2Cl)c1` (stereo not shown) [Compound 139, ethyl 3-(2-(benzo[d]oxazol-2-ylamino)-4-(2-chlorophenyl)-6-methyl-1,4-dihydropyrimidine-5-carboxamido)benzoate], the “Metab. Stabil. (m)” value in data set [1] (microsomal stability half-life) is above 30 m. Also, the IC50 on recombinant human GALK1 (setting [4]) turned out to be 3.85 µM. Further, the “Sol.” value in data set [2] (aqueous kinetic solubility) was below 1 µg/mL. Also, in the data set “PAMPA permeability” (PAMPA), the Papp turned out to be 8.8 ×10⁻⁶ cm/s.

As for `CC1=C(C(=O)Nc2ccc(CO)cc2)C(c2ccccc2Cl)N=C(Nc2nc3ccccc3o2)N1` (stereo not shown) [Compound 160, 2-(benzo[d]oxazol-2-ylamino)-4-(2-chlorophenyl)-N-(4-(hydroxymethyl)phenyl)-6-methyl-1,4-dihydropyrimidine-5-carboxamide], in data set [1] (microsomal stability half-life), the “Metab. Stabil. (m)” value is recorded as above 30 m. The IC50 at recombinant human GALK1 (setting [3]) is 17.2 µM. Also, in data set [2] (aqueous kinetic solubility), the “Sol.” value was below 1 µg/mL. The “Perm. (1 × 10^−6 cm/sec)” value in “PAMPA permeability” (PAMPA) is given as 863.9 1 × 10^−6 cm/sec.

In the case of `COC(=O)c1cncc(NC(=O)C2=C(C)NC(Nc3nc4ccccc4o3)=NC2c2ccccc2Cl)c1` (stereo not shown) [Compound 188, methyl 5-(2-(benzo[d]oxazol-2-ylamino)-4-(2-chlorophenyl)-6-methyl-1,4-dihydropyrimidine-5-carboxamido)nicotinate], in data set [1] (microsomal stability half-life), the “Metab. Stabil. (m)” value was above 30 m. The IC50 came out at 21 µM at recombinant human GALK1 (setting [3]) and 21.7 µM at recombinant human GALK1 (setting [4]). Further, in data set [2] (aqueous kinetic solubility), the “Sol.” value was below 1 µg/mL. Moreover, the “Perm. (1 × 10^−6 cm/sec)” value in the data set “PAMPA permeability” (PAMPA) is listed as 246.9 1 × 10^−6 cm/sec.

As to `CC1=C(C(=O)Nc2ccc(-c3nnn[nH]3)cc2)C(c2ccccc2Cl)N=C(Nc2nc3ccccc3o2)N1` (stereo not shown) [Compound 192, N-(4-(1H-tetrazol-5-yl)phenyl)-2-(benzo[d]oxazol-2-ylamino)-4-(2-chlorophenyl)-6-methyl-1,4-dihydropyrimidine-5-carboxamide], the “Metab. Stabil. (m)” value in data set [1] (microsomal stability half-life) came out at 30 m. Besides, the IC50 on recombinant human GALK1 (setting [3]) and at recombinant human GALK1 (setting [4]) was 4.85 µM in each case. Besides, in data set [2] (aqueous kinetic solubility), the “Sol.” value came to 33.4 µg/mL. Besides, the apparent permeability (Papp) in the data set “PAMPA permeability” (PAMPA) is below 1.7 ×10⁻⁶ cm/s.

Regarding `COP(=O)(OC)C1=C(C)NC(Nc2nc3ccccc3o2)=NC1c1ccccc1Cl` (stereo not shown) [Compound 242, dimethyl (2-(benzo[d]oxazol-2-ylamino)-4-(2-chlorophenyl)-6-methyl-1,4-dihydropyrimidin-5-yl)phosphonate], the “Metab. Stabil. (m)” value in data set [1] (microsomal stability half-life) was 5.35 m. Further, the IC50 at recombinant human GALK1 (setting [4]) came to 17.2 µM. Besides, the “Sol.” value in data set [2] (aqueous kinetic solubility) was 12.21 µg/mL. Also, the “Perm. (1 × 10^−6 cm/sec)” value in the data set “PAMPA permeability” (PAMPA) was 1813.86 1 × 10^−6 cm/sec.
